In US9617311B2, “Use of PEDF-derived polypeptides for promoting stem cells proliferation and wound healing” (Mackay Memorial Hospital, priority 2011, dated 2017):

How the values were obtained:
[1] = system: LSCs in the limbus; experiment: In vivo LSC proliferation in limbus 24 hours after corneal wounding, BrdU/ΔNp63α double-immunostaining; design: species or system C57BL/6 mice; details: peptide eye ointment, control 15.0±7.6%
Description: De-paraffinized tissue sections or 4% paraformaldehyde-fixed LSCs were blocked with 10% goat serum and 5% BSA in PBST (PBS containing 0.1% Tween-20) for 1 hour. Staining was done using primary antibodies against ΔNp63α (1:150 dilution), BrdU (1:250 dilution), and keratin-3 (1:250 dilution) at 37° C. for 2 hours, followed by incubation with the appropriate rhodamine- or FITC-conjugated donkey IgG (1:500 dilution) for 1 hour at RT. Nuclei were identified by counterstaining with Hoechst 33258 for 7 minutes. Images were captured using a Zeiss epifluorescence microscope with a CCD camera and photographs were taken by using the Axiovert software.
2×10^5 limbal cells (the 1st passage) were seeded at a slide coated with FNC COATING MIX® solution (Athena Enzyme Systems, Baltimore, Md.) and incubated with a culture medium for one day. BrdU (final, 10 μM) was added to the culture for 2 hours. […] DNA synthesis was assessed by BrdU labeling with anti-BrdU antibodies. […]
Each synthetic peptide (the 39-mer, 34-mer, 29-mer, 25-mer, 20-mer, 18-mer, Mo 29-mer or Mo 20-mer) was reconstituted in DMSO as stock (5 mM) and mixed with TOBREX® eye ointment (Alcon; containing 0.3% Tobramycin and 0.5% Chlorobutanol) to a concentration 50 μM. […] Wound size was determined by staining with topical fluorescein (Fluor-I-Strip, Ayerst Laboratories, Philadelphia, Pa.) and photographed with a digital camera. […]

[2] = system: Lgr6-positive HFSCs; experiment: Distribution of Lgr6-positive HFSCs at HE tissue at day 4 post skin wounding, immunohistochemistry; assay type: in vivo, C57L/B6 mice; details: wounds treated for 4 days
Text: FIGS. 10A and 10B illustrate histological analysis of the distribution of HFSCs at day 4 post-skin wounding. FIG. 10A provides photographs in which specimens were immunehistologically stained with Lgr6 to observe HFSC-derived cells at HE tissue and counterstained with hematoxylin to observe nuclei. Original magnification, ×400. FIG. 10B presents photographs in which sections of 20-mer ointment-treated wound were stained with BrdU- and Lgr6-specific antibodies. Lgr6 is expressed in the cell nucleus as confirmed by Hoechst 33258 counterstaining.
To perform full-thickness skin excision, 8- to 10-week-old C57L/B6 mice were respectively anesthetized by an intraperitoneal injection of a mixture of zoletil (6 mg/kg) and xylazine (3 mg/kg). Two full-thickness skin excisional wounds, 4 mm in diameter were made on either side of the dorsal midline using Sklar Tru-Punch disposable biopsy punch (Sklar, West Chester, Pa., USA). In each treatment group (n=6), the skin wound was treated with 25 μl skin ointment (containing 50 μM synthetic peptide and 0.006 μl DMSO vehicle) once daily after the skin scraping. In the control group (n=6), skin wound was treated with 25 μl of skin ointment with equal concentration of DMSO. Each gram of the above skin ointment contains 5 mg neomycin sulfate and 12.5 mg Bacitracin Zinc. Wounds were left uncovered and harvested 4 and 7 days after injury. […]

| Sequence | levels of BrdU- and ΔNp63α-positive cells in the limbus [1] [%] | Lgr6-positive cells at HE tissue versus control wound [2] |
| --- | --- | --- |
| SLGAEQRTESIIHRALYYDL [20-mer, synthetic peptide identical to residues 11-30 of the 39-mer] | 42.4±4.3 | markedly increased |
| SLGAEQRTESIIHRALYYDLISSPDIHGT [29-mer, short synthetic PEDF peptide derived from the 39-mer] | 43.2±4.6 |  |
